Assay results: paper PMC11220606, “Understanding β-strand mediated protein–protein interactions: tuning binding behaviour of intrinsically disordered sequences by backbone modification” (Chemical Science, 2024)

Legend:
[1] = molecular target: T1, human SUMO-1_18–97 (SUMO) (Homo sapiens, UniProt P63165); assay: Temperature dependence of NMR-derived exchange parameters (Van't Hoff and Eyring analysis); type: binding; parameters: human SUMO-1_18–97 (SUMO); His tag with TEV site (N, cleaved yes); made in house; settings: 25 °C; for TΔS, Binding (KD) / ΔH, Binding (KD): Van't Hoff fit, ± SD of fitted parameter (Monte-Carlo), SD
[2] = molecular target: T1, human SUMO-1_18–97 (SUMO); assay: as above; type: binding; parameters: human SUMO-1_18–97 (SUMO); His tag with TEV site (N, cleaved yes); made in house; settings: 25 °C; for TΔS, Association (activation, kon) / TΔS, Dissociation (activation, koff) / ΔG, Association (activation, kon) / ΔG, Dissociation (activation, koff) / ΔH, Association (activation, kon) / ΔH, Dissociation (activation, koff): Eyring fit, ± SD of fitted parameter (Monte-Carlo), SD
Source text: Eyring plots were obtained for the temperature-dependence of the kon and koff rates (Fig. 5d and e), from which the association/dissociation activation enthalpies (ΔH^‡ass/ΔH^‡diss), activation/dissociation entropies (TΔS^‡ass/TΔS^‡diss), and thus activation/dissociation free energies (ΔG^‡ass/ΔG^‡diss), could be determined.

[3] = molecular target: T1, human SUMO-1_18–97 (SUMO); assay: Relaxation-based NMR binding kinetics (15N ZZ-exchange for tighter binders, CPMG relaxation dispersion for weaker binders); settings: for koff / kon: pH 7.4
Source text: Non-overlapping exchange cross-peaks were evident for a subset of residues when the ^15N magnetizations of the bound and unbound states were mixed following t1 (^15N) evolution (ZZ-exchange spectroscopy). Global fitting of the intensities of auto and cross peaks as a function of mixing time to McConnel equations (Fig. 3c, S8–S11; ESI ^† for methods) gave apparent first-order association k^appon and first-order dissociation koff rates for binding, which were converted to kon and dissociation equilibrium constants (KD).
All NMR spectra acquired using 15N-labelled protein samples were acquired at 5 °C, in 20 mM sodium
phosphate pH 7.4, 150 mM NaCl, 0.02% NaN3, on 750 or 600 MHz Bruker NMR spectrometers.
Protein and peptide NMR spectra were processed with NMRPipe and analysed in CcpNmr analysis.
15N ZZ-exchange spectroscopy
15N ZZ-exchange experiments were performed in an interleaved manner as described previously4 using mixing
times between 10 and 500 ms. Data were fit to a simple 2-state model:
where state A represents unbound SUMO and state B represents SUMO bound to SIM. The time-evolution of
the longitudinal magnetisations during mixing are described by the corresponding McConnel equations:4
𝑧 = 𝑘𝑎𝑝𝑝𝑀𝑏𝑎 ‒ 𝑀𝑏𝑏(𝑘 + 𝑅𝑏)
𝑧 = 𝑘 𝑀𝑏𝑏 ‒ 𝑀𝑏𝑎(𝑘𝑎𝑝𝑝 + 𝑅𝑎)
where is the𝑀𝑎𝑎𝑧 z-magnetization of unbound SUMO, is the𝑀𝑏𝑏𝑧 z-magnetization of bound SUMO, and , 𝑀𝑎𝑏𝑧
𝑧 are the z-magnetizations of the corresponding exchange cross-peaks. are11 the longitudinal relaxation
rates for states A and B, and are𝑜𝑛𝑜𝑓𝑓 the pseudo-first order association and dissociation rates,
respectively. Simple analytical solutions to the above equations are available4 and were used to fit the ZZ-
exchange data. Fitting parameters included , residue𝑜𝑛𝑜𝑓𝑓 specific rates,11 and scaling factors
𝐼𝑎𝑎, 𝐼𝑏𝑏 that incorporate any differences in the relaxation rates of the bound and unbound species. Scaling
factors for the exchange cross-peaks were 𝐼𝑎𝑏, 𝐼𝑏𝑎 not included as these were absent at the start of the mixing
period in all cases. Uncertainties in the fitted parameters were calculated using a Monte-Carlo approach based
on the noise of the experiment. Fitting was performed using in-house scripts written in Python employing the
LmFit module available at https://lmfit.github.io/lmfit-py/.

[4] = molecular target: T1, human SUMO-1_18–97 (SUMO); assay: Fluorescence anisotropy competition assay (FAM-SIM tracer displacement from SUMO); settings: for inhibitory potency relative to the parent SIM peptide (in words): fluorescence anisotropy competition assay, backbone N-methyl scan
Method: Fluorescence competition anisotropy data. The parent SIM peptide and its N-methylated variants were each
peptide (50 nM) in Tris-buffered saline (20 mM Tris, pH 8.0, 150 mM NaCl and 0.03% Triton-X).
Tris, 150 mM NaCl, 0.01 % Triton-X, pH 7.4 using 50 nM FAM PEG-SIM tracer and 3 μM SUMO protein.
Inhibitory potencies for N-methylated SIM peptides to SUMO. IC50 values were determined through competition
FA experiments (20 mm Tris, 150 mM NaCl, 0.03% Triton X, pH 8.0).
Competition binding assays were performed in triplicate within 384-well plates (Greiner Bio-one). Competitor
nM, 3 μM, 50 nM final concentrations of competitor, SUMO and tracer respectively). Control wells lacked
tracer. The plates were kept in the dark for at least 30 min before fluorescence polarisation was measured.
Labtech), with excitation at 482 nm (bandwidth = 16 nM) and emission at 530 nm (bandwidth = 40 nm). For
(bandwidth = 20 nM) and emission at 535 nm (bandwidth = 25 nm).
Perependicular (P) and parallel (S) intensities of the control wells were averaged and deducted from each
= Ssample – Sav. control). The total sample intensities (I) and anisotropies (r) were then calculated as follows:
Fluorescence anisotropy values were plotted against competitor peptide concentrations and fit to a logistic
function of the form Y = A2 + (A1 – A2) / (1 + (x/x0)p) for determination of half-maximal inhibitory concentrations
Note: To ensure a set of self-consistent IC50 values for comparison, experiments were performed using a single
batch of protein given subtle batch dependent variations in active concentration of protein.

T1 sequence (P63165 18-97): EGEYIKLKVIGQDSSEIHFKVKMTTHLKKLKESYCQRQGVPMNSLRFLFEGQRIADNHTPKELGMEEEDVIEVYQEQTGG

| SMILES | Kd [3] | koff [3] | kon [3] | IC50 [4] | also measured |
| --- | --- | --- | --- | --- | --- |
| CC[C@H](C)[C@H](NC(=O)[C@H](CCC(=O)O)NC(=O)[C@H](CC(N)=O)NC(=O)[C@H](CC(=O)O)NC(C)=O)C(=O)N[C@@H](CCC(=O)O)C(=O)N[C@H](C(=O)N[C@H](C(=O)N(C)[C@H](C(=O)N[C@H](C(=O)N[C@@H](Cc1c[nH]c2ccccc12)C(=O)N[C@@H](CCC(=O)O)C(=O)N[C@@H](CCCCN)C(=O)N[C@@H](CCCCN)C(N)=O)C(C)C)[C@@H](C)CC)[C@@H](C)CC)C(C)C [Me-Ile2712, Ac-DNEIEVI(NMe)IVWEKK-NH2] | 14.5 ± 0.9 µM | 5.9 ± 0.08 s⁻¹ | 410000 ± 28000 M⁻¹ s⁻¹ | 7.9 ± 1 µM | decrease in ΔGbind relative to parent [1]: 0.72 kcal/mol; increase in enthalpy (ΔHbind) in comparison to the parent SIM peptide [1]: ~2.87 kcal/mol; increase in entropy of binding (TΔSbind) in comparison to the parent SIM peptide [1]: ~3.59 kcal/mol; TΔS, Binding (KD) [1]: 38.67 ± 0.478 kcal/mol; ΔH, Binding (KD) [1]: 29.92 ± 0.048 kcal/mol; TΔS‡ass more favourable than parent by [2]: ≈ 11 kJ mol^−1; ΔH‡ass more unfavourable than parent by [2]: ≈ 8 kJ mol^−1; TΔS, Association (activation, kon) [2]: 34.78 ± 0.502 kcal/mol; TΔS, Dissociation (activation, koff) [2]: -3.51 ± 0.048 kcal/mol; ΔG, Association (activation, kon) [2]: 6.57 ± 0.526 kcal/mol; ΔG, Dissociation (activation, koff) [2]: 15.5 ± 0.096 kcal/mol; ΔH, Association (activation, kon) [2]: 41.23 ± 0.502 kcal/mol; ΔH, Dissociation (activation, koff) [2]: 12 ± 0.072 kcal/mol; ΔΔG vs. parent (increase in affinity) ([3]; from KD values of 15N ZZ-exchange data at 5 °C): ~0.48 kcal/mol |
| CC[C@H](C)[C@H](NC(=O)[C@H](CCC(=O)O)NC(=O)[C@H](CC(N)=O)NC(=O)[C@H](CC(=O)O)NC(C)=O)C(=O)N[C@@H](CCC(=O)O)C(=O)N[C@H](C(=O)N(C)[C@H](C(=O)N[C@H](C(=O)N[C@H](C(=O)N[C@@H](Cc1c[nH]c2ccccc12)C(=O)N[C@@H](CCC(=O)O)C(=O)N[C@@H](CCCCN)C(=O)N[C@@H](CCCCN)C(N)=O)C(C)C)[C@@H](C)CC)[C@@H](C)CC)C(C)C [Me-Ile2711, Ac-DNEIEV(NMe)IIVWEKK-NH2] | – | – | – | > 300 µM | inhibitory potency relative to the parent SIM peptide (in words) [4]: significantly diminished inhibitory potency |
| CC[C@H](C)[C@H](NC(=O)[C@H](CCC(=O)O)NC(=O)[C@H](CC(N)=O)NC(=O)[C@H](CC(=O)O)NC(C)=O)C(=O)N[C@@H](CCC(=O)O)C(=O)N[C@H](C(=O)N[C@H](C(=O)N[C@H](C(=O)N(C)[C@H](C(=O)N[C@@H](Cc1c[nH]c2ccccc12)C(=O)N[C@@H](CCC(=O)O)C(=O)N[C@@H](CCCCN)C(=O)N[C@@H](CCCCN)C(N)=O)C(C)C)[C@@H](C)CC)[C@@H](C)CC)C(C)C [Me-Val2713] | – | – | – | > 100 µM | inhibitory potency relative to the parent SIM peptide (in words) [4]: significantly diminished inhibitory potency |
| CC[C@H](C)[C@H](NC(=O)[C@H](CCC(=O)O)NC(=O)[C@H](CC(N)=O)N(C)C(=O)[C@H](CC(=O)O)NC(C)=O)C(=O)N[C@@H](CCC(=O)O)C(=O)N[C@H](C(=O)N[C@H](C(=O)N[C@H](C(=O)N[C@H](C(=O)N[C@@H](Cc1c[nH]c2ccccc12)C(=O)N[C@@H](CCC(=O)O)C(=O)N[C@@H](CCCCN)C(=O)N[C@@H](CCCCN)C(N)=O)C(C)C)[C@@H](C)CC)[C@@H](C)CC)C(C)C [Me-Asn2706] | – | – | – | 9.4 ± 0.5 µM | – |
| CC[C@H](C)[C@H](NC(=O)[C@H](CCC(=O)O)NC(=O)[C@H](CC(N)=O)NC(=O)[C@H](CC(=O)O)NC(C)=O)C(=O)N[C@@H](CCC(=O)O)C(=O)N[C@H](C(=O)N[C@H](C(=O)N[C@H](C(=O)N[C@H](C(=O)N[C@@H](Cc1c[nH]c2ccccc12)C(=O)N(C)[C@@H](CCC(=O)O)C(=O)N[C@@H](CCCCN)C(=O)N[C@@H](CCCCN)C(N)=O)C(C)C)[C@@H](C)CC)[C@@H](C)CC)C(C)C [Me-Glu2715] | – | – | – | 27.4 ± 1.9 µM | – |
| CC[C@H](C)[C@H](NC(=O)[C@H](CCC(=O)O)NC(=O)[C@H](CC(N)=O)NC(=O)[C@H](CC(=O)O)NC(C)=O)C(=O)N[C@@H](CCC(=O)O)C(=O)N(C)[C@H](C(=O)N[C@H](C(=O)N[C@H](C(=O)N[C@H](C(=O)N[C@@H](Cc1c[nH]c2ccccc12)C(=O)N[C@@H](CCC(=O)O)C(=O)N[C@@H](CCCCN)C(=O)N[C@@H](CCCCN)C(N)=O)C(C)C)[C@@H](C)CC)[C@@H](C)CC)C(C)C [Me-Val2710] | 388 ± 7 µM | 208 ± 1 s⁻¹ | 536000 ± 10000 M⁻¹ s⁻¹ | > 100 µM | – |
| CC[C@H](C)[C@H](NC(=O)[C@H](CCC(=O)O)NC(=O)[C@H](CC(N)=O)NC(=O)[C@H](CC(=O)O)NC(C)=O)C(=O)N[C@@H](CCC(=O)O)C(=O)N[C@H](C(=O)N[C@H](C(=O)N[C@H](C(=O)N[C@H](C(=O)N[C@@H](Cc1c[nH]c2ccccc12)C(=O)N[C@@H](CCC(=O)O)C(=O)N[C@@H](CCCCN)C(=O)N(C)[C@@H](CCCCN)C(N)=O)C(C)C)[C@@H](C)CC)[C@@H](C)CC)C(C)C [Me-Lys2717] | 13.6 ± 0.5 µM | 8.95 ± 0.12 s⁻¹ | 657000 ± 27000 M⁻¹ s⁻¹ | 10 ± 0.4 µM | – |
| CC[C@H](C)[C@H](NC(=O)[C@@H](NC(=O)[C@H](CCC(=O)O)NC(=O)[C@H]([C@@H](C)CC)N(C)C(=O)[C@H](CCC(=O)O)NC(=O)[C@H](CC(N)=O)NC(=O)[C@H](CC(=O)O)NC(C)=O)C(C)C)C(=O)N[C@H](C(=O)N[C@H](C(=O)N[C@@H](Cc1c[nH]c2ccccc12)C(=O)N[C@@H](CCC(=O)O)C(=O)N[C@@H](CCCCN)C(=O)N[C@@H](CCCCN)C(N)=O)C(C)C)[C@@H](C)CC [Me-Ile2708] | 14 ± 0.4 µM | 4.58 ± 0.04 s⁻¹ | 327000 ± 9000 M⁻¹ s⁻¹ | 5.4 ± 0.3 µM | – |
| CC[C@H](C)[C@H](NC(=O)[C@H](CCC(=O)O)NC(=O)[C@H](CC(N)=O)NC(=O)[C@H](CC(=O)O)N(C)C(C)=O)C(=O)N[C@@H](CCC(=O)O)C(=O)N[C@H](C(=O)N[C@H](C(=O)N[C@H](C(=O)N[C@H](C(=O)N[C@@H](Cc1c[nH]c2ccccc12)C(=O)N[C@@H](CCC(=O)O)C(=O)N[C@@H](CCCCN)C(=O)N[C@@H](CCCCN)C(N)=O)C(C)C)[C@@H](C)CC)[C@@H](C)CC)C(C)C [Me-Asp2705] | – | – | – | 12.6 ± 0.5 µM | – |
| CC[C@H](C)[C@H](NC(=O)[C@H](CCC(=O)O)NC(=O)[C@H](CC(N)=O)NC(=O)[C@H](CC(=O)O)NC(C)=O)C(=O)N[C@@H](CCC(=O)O)C(=O)N[C@H](C(=O)N[C@H](C(=O)N[C@H](C(=O)N[C@H](C(=O)N[C@@H](Cc1c[nH]c2ccccc12)C(=O)N[C@@H](CCC(=O)O)C(=O)N(C)[C@@H](CCCCN)C(=O)N[C@@H](CCCCN)C(N)=O)C(C)C)[C@@H](C)CC)[C@@H](C)CC)C(C)C [Me-Lys2716] | 510 ± 40 µM | 553 ± 17 s⁻¹ | 1.09e+06 ± 70000 M⁻¹ s⁻¹ | > 100 µM | TΔS, Binding (KD) [1]: 12.5 ± 0.048 kcal/mol; ΔH, Binding (KD) [1]: 7.5 ± 0.048 kcal/mol; TΔS, Association (activation, kon) [2]: 3.11 ± 0.048 kcal/mol; TΔS, Dissociation (activation, koff) [2]: -9.2 ± 0.024 kcal/mol; ΔG, Association (activation, kon) [2]: 8.46 ± 0.072 kcal/mol; ΔG, Dissociation (activation, koff) [2]: 13.5 ± 0.024 kcal/mol; ΔH, Association (activation, kon) [2]: 11.6 ± 0.048 kcal/mol; ΔH, Dissociation (activation, koff) [2]: 4.28 ± 0.024 kcal/mol |
| CC[C@H](C)[C@H](NC(=O)[C@@H](NC(=O)[C@H](CCC(=O)O)N(C)C(=O)[C@@H](NC(=O)[C@H](CCC(=O)O)NC(=O)[C@H](CC(N)=O)NC(=O)[C@H](CC(=O)O)NC(C)=O)[C@@H](C)CC)C(C)C)C(=O)N[C@H](C(=O)N[C@H](C(=O)N[C@@H](Cc1c[nH]c2ccccc12)C(=O)N[C@@H](CCC(=O)O)C(=O)N[C@@H](CCCCN)C(=O)N[C@@H](CCCCN)C(N)=O)C(C)C)[C@@H](C)CC [Me-Glu2709] | – | – | – | 31.4 ± 3 µM | – |
| CC[C@H](C)[C@H](NC(=O)[C@@H](NC(=O)[C@H](CCC(=O)O)NC(=O)[C@@H](NC(=O)[C@H](CCC(=O)O)N(C)C(=O)[C@H](CC(N)=O)NC(=O)[C@H](CC(=O)O)NC(C)=O)[C@@H](C)CC)C(C)C)C(=O)N[C@H](C(=O)N[C@H](C(=O)N[C@@H](Cc1c[nH]c2ccccc12)C(=O)N[C@@H](CCC(=O)O)C(=O)N[C@@H](CCCCN)C(=O)N[C@@H](CCCCN)C(N)=O)C(C)C)[C@@H](C)CC [Me-Glu2707] | – | – | – | 12.4 ± 0.8 µM | – |
| CC[C@H](C)[C@H](NC(=O)[C@H](CCC(=O)O)NC(=O)[C@H](CC(N)=O)NC(=O)[C@H](CC(=O)O)NC(C)=O)C(=O)N[C@@H](CCC(=O)O)C(=O)N[C@H](C(=O)N[C@H](C(=O)N[C@H](C(=O)N[C@H](C(=O)N(C)[C@@H](Cc1c[nH]c2ccccc12)C(=O)N[C@@H](CCC(=O)O)C(=O)N[C@@H](CCCCN)C(=O)N[C@@H](CCCCN)C(N)=O)C(C)C)[C@@H](C)CC)[C@@H](C)CC)C(C)C [Me-Trp2714] | – | – | – | > 100 µM | inhibitory potency relative to the parent SIM peptide (in words) [4]: significantly diminished inhibitory potency |
